Consider four molecules from patent US8940800B2, “Pharmaceutical compositions with enhanced performance” (Bend Research, Inc., priority 2004, dated 2015).

Read-outs that look alike come from different tables or passages of the source.

Data set [1] can be described thus: In vivo test of oral powder for constitution in beagle dogs (Example 10). Conditions: male, dog, plasma, Fed, 90 mgA Drug 1 oral OPC. As for the experimental part: (§1) Dispersion 17, consisting of 50:50 Drug 1:HPMCA Polymer 10, was dosed in male beagle dogs as an oral powder for constitution (OPC), by suspending the dispersion in a solution containing 0.5 wt % hydroxypropyl cellulose METHOCEL® (from Dow Chemical Co.), as follows. First, 7.5 g of METHOCEL® was weighed out and added slowly to approximately 490 ml of water at 90-100° C. to form a METHOCEL® suspension. After all the METHOCEL® was added, 1000 mL of cool/room temperature water was added to the suspension, which was then placed in an ice water bath. When all of the METHOCEL® had dissolved, 2.55 g of polyoxyethylene 20 sorbitan monooleate (TWEEN 80) were added and the mixture stirred until the TWEEN 80 had dissolved, thus forming a stock suspension solution.
To form the OPC, sufficient quantity of the test composition to result in a 90 mgA amount of Drug 1 was accurately weighed and placed into a mortar. A 20 mL quantity of the stock suspension solution was added to the mortar and the test composition was mixed with a pestle. Additional METHOCEL® suspension was added gradually with mixing until a total of 400 mL of the stock suspension solution had been added to the mortar. The suspension was then transferred to a flask, thus forming the OPC. In addition, an OPC containing 90 mgA of amorphous Drug 1 was prepared using the same procedure.
Six male beagle dogs were each dosed with the OPC. […]

Data set [2] is described as follows: In vivo test of oral powder for constitution in beagle dogs (Example 2). Conditions: male, dog, plasma, Fed, 90 mgA Drug 1 oral OPC. The protocol: as §1, with “Dispersions 1 and 4 were used as oral powders for constitution (OPC) for evaluating the performance” for “Dispersion 17, consisting”, “the dispersions in in vivo tests using male beagle dogs. The OPC” for “50:50 Drug 1:HPMCA Polymer 10,”, “dosed” for “dosed in male beagle dogs”, “a suspension” for “an oral powder for constitution (OPC), by suspending the dispersion”, “Co.), and was prepared” for “Co.),”
To form the OPC, sufficient quantity of the test composition to result in a 90 mgA amount of Drug 1 was accurately weighed and placed into a mortar. (“mgA” refers to mg of active drug.) A 20 mL quantity of the stock suspension solution was added to the mortar and the test composition was mixed with a pestle. Additional METHOCEL® suspension was added gradually with mixing until a total of 400 mL of the stock suspension solution had been added to the mortar. The suspension was then transferred to a flask, thus forming the OPC. This process was repeated for each of Dispersions 1 and 4. […]

Data set [3] is described as follows: Microcentrifuge dissolution test in PBS with NaTC/POPC, Drug 6 (Examples 8 and 12). The following applies: 37° C., 0 to 90 minutes. It is filed as physicochemical. The protocol: Dispersion 19 was also evaluated in a microcentrifuge dissolution test using the following procedures. For this test, 1.7 mg of Dispersion 19 and 1.27 mg of Crystalline Drug 6 was added to respective microcentrifuge tubes. The tubes were placed in a 37° C. temperature-controlled bath, and 1.8 mL phosphate buffered saline (PBS) at pH 6.5 and 290 mOsm/kg containing 7.3 mM sodium taurocholic acid and 1.4 mM of 1-palmitoyl-2-oleyl-sn-glycero-3-phosphocholine was added to each tube. The concentration of Drug 6 would have been […] if all of the drug had dissolved. The samples were quickly mixed using a vortex mixer for about 60 seconds. The samples were centrifuged at 13,000 G at 37° C. for 1 minute. The resulting supernatant solutions were then sampled and diluted 1:6 (by volume) with methanol and then analyzed by high-performance liquid chromatography (HPLC). The contents of the tubes were mixed on the vortex mixer and allowed to stand undisturbed at 37° C. until the next sample was taken. Samples were collected at 4, 10, 20, 40, 90, and 1200 minutes.
The concentrations of Drug 6 obtained in these samples were used to determine the values of the maximum drug concentration between 0 and 90 minutes (MDC90) and the area under the curve from 0 to 90 minutes (AUC90).
A physical mixture of 75 wt % Drug 6 and 25 wt % HPMCA Polymer 16 was evaluated using the microcentrifuge dissolution test described in Example 8. The concentration of Drug 6 would have been 500 μgA/mL if all of the drug had dissolved. A control consisting of a physical mixture of 75 wt % Drug 6 and 25 wt % HPMC (Dow E3 Prem LV) was tested in the same test.

A short description of data set [4]: In vitro membrane permeation test, Drug 6 (Example 7). It is filed as physicochemical. The following applies: Drug 6, feed solution 0.5% NaTC/POPC, permeate 60 wt % decanol in decane. As for the experimental part:
Dispersion 19 (75:25 Drug 6:Polymer 17) was evaluated in vitro using the membrane permeation test described for Example 6, except that the permeate solution consisted of 60 wt % decanol in decane. The feed solution was made using MFD solution (0.5% NaTC/POPC). The concentration of Drug 6 in the feed solution would have been 500 μg/mL (354 μgA/mL), if all of the drug had dissolved.
As a control, crystalline Drug 6 alone was used. The concentration of drug added would have been 354 μgA/mL Drug 6, if all of the drug had dissolved.
The maximum flux of drug across the membrane (in units of μg/cm^2-min) was determined from the data by estimating the tangent to the concentration versus time curve at time 0.

A further data set is described as follows: physchem. The following applies: pH 6, aqueous buffer.
The conditions of data set [5]: not told.
[6] abbreviates: Table 16, PBS pH 6.5 with 7.3 mM NaTC/1.4 mM POPC.
Where [7] appears, read: Table 20, PBS pH 6.5 with NaTC/POPC.

A word on the Cmax: it is the maximum level reached in the sampled fluid or tissue. Take `CCOC(=O)N1c2ccc(C(F)(F)F)cc2[C@@H](N(Cc2cc(C(F)(F)F)cc(C(F)(F)F)c2)C(=O)OC)C[C@H]1CC` [Amorphous Drug 1, [2R,4S]4-[(3,5-bis-trifluoromethyl-benzyl)-methoxycarbonyl-amino]-2-ethyl-6-trifluoromethyl-3,4-dihydro-2H-quinoline-1-carboxylic acid ethyl ester]: the maximum concentration (Cmax) in data set [1] and in data set [2] was 190 ± 55 ng/mL each time. Further, the AUC(0-t) in data set [1] (read-out: AUC(0-12)) and in data set [2] (read-out: AUC(0-12)) was 640 ± 240 ng·h/mL each time.

As to `CCCc1nn(C)c2c(=O)[nH]c(-c3cc(S(=O)(=O)N4CCN(C)CC4)ccc3OCC)nc12.O=C(O)CC(O)(CC(=O)O)C(=O)O` [Crystalline Drug 6, 1-[4-ethoxy-3-(6,7-dihydro-1-methyl-7-oxo-3-propyl-1H-pyrazolo[4,3-d]pyrimidin-5-yl)phenylsulphonyl]-4-methylpiperazine citrate salt], in data set [3] (setting [6]), the AUC90 was 7,000 min * μgA/mL and the MDC,90 is 98 μgA/mL. In addition, in data set [3] (setting [7]), the AUC90 is reported as 7,000 min * μgA/mL and the MDC,90 amounted to 98 μgA/mL. The “Maximum Drug Flux” value in data set [4] is given as 3.8 μg/cm^2-min.

One may read the solubility as the dissolved amount per volume that the medium holds. `CCCc1nn(C)c2c(=O)[nH]c(-c3cc(S(=O)(=O)N4CCN(C)CC4)ccc3OCC)nc12.O=C(O)CC(O)(CC(=O)O)C(=O)O` [Drug 6, 1-[4-ethoxy-3-(6,7-dihydro-1-methyl-7-oxo-3-propyl-1H-pyrazolo[4,3-d]pyrimidin-5-yl)phenylsulphonyl]-4-methylpiperazine citrate salt] showed a solubility in “physchem” of approximately 20 µg/mL.

“[2R,4S]4-[(3,5-bis-trifluoromethyl-benzyl)-methoxycarbonyl-amino]-2-ethyl-6-trifluoromethyl-3,4-dihydro-2H-quinoline-1-carboxylic acid ethyl ester [Crystalline Drug 1]”: the “Maximum Drug Flux” value in data set [5] was 0.16 μg/cm^2-min.
